Assays:
[1] = literature; cited from earlier work
[2] = literature; cited from earlier work; remark: listed apart in the source
rat cortical stem cells [3] = test: Neuronal differentiation of rat cortical stem cells (β-tubulin III immunofluorescence, cell counting); assay type: cell-based; conditions: rat cortical stem cells; for effect on neuronal differentiation (percentage of β-tubulin-III expressing cells) in words: 6 days, vs control; for percentage of β-tubulin III expressing neurons (mean+SD): daily treatment 6 days, 10 ng/ml BDNF, 20 ng/ml NT-3, untreated control 6.2+1.8%
Description: Isolation of cortical and striatal stem cells. Timed pregnant Sprague Dawley rats were obtained from Taconic at embryonic age E14–E15 were sacrificed by inhalation of excess carbon dioxide. The abdomen of the rat was cleaned with 70% ethanol and the uterus was removed quickly and aseptically on the bench top. The uterus was placed in ice cold HBSS (GIBCO Cat. #20012-027) in a 10 cm petridish. After rinsing the uterus in PBS, embryos were removed from the uterus, rinsed in HBSS and collected in cold HBSS (buffered with HEPES and sodium bicarbonate) in a 10 cm petridish and placed on ice.
Plating, expansion and passaging of cortical and striatal stem cells. A generous amount of the triturated cell suspension was left in the original 15 ml tube to avoid fibroblast contamination in cultures. About 4–5 ml of the 6 ml of cells suspension was used for plating. Cells were plated at a concentration of 1.3×10^3 cells to 3.0×10^3 per cm^2 in 100 mm dish. This culture is designated P0 (passage 0).
(§1) Following plating cells were expanded for about 3–4 days (Passage 1, P1). Cells were treated daily with 10 ng/ml bFGF. The cultures were never permitted to reach more than 70% confluency. Cultures were then passaged as follows: 10 ml of HBSS without Ca^2+ and Mg^2+ was added to each 100 mm dish and the cells incubated at 37° C. for 5–15 minutes, or until sufficient numbers of the stem cells were rounded up. It is not expected that all cells in the culture will round up as there are several cell types in the culture at P0. The pH of the HBSS should be neutral at all times during this incubation. Cells were then removed from the dish by pipetting with a 5 ml pipette, and collected in a 15 or 50 ml conical tube, and centrifuged at 1000 g for 5 minutes. Cells were gently re-suspended in medium, counted, and plated at a density of 1×10^6 cells in 10 cm dishes and expanded for about 2 days in bFGF (Passage 1, P1). At that time the cells were passaged as described and plated onto pre-coated poly-L-ornithine/fibronectin vessels at concentrations indicated below for each experiment. Cells were treated with bFGF for 2 additional days. Before each treatment the bFGF was removed from the cells by washing twice with DMEM/F 12 to induce cell differentiation. For neurite outgrowth experiments, cells were seeded at 5×10^3 cells/well in 24-well plates and treated immediately.
(§2) Drug treatment. For immunofluorescence and Western analysis, cells were treated daily with either 0.5 mM of valproate (Sigma), 10 ng/ml of BDNF (R & D Systems), 20 ng/ml of NT-3 (R & D Systems), 1 nM 9cis retinoic acid (Sigma) or a dilution of NCM for 6 or 7 days. In some experiments valproate was also added with NCM and/or 9cis RA for 7 days. For human stem cell experiments, valproate (0.5 mM) or BDNF (25 ng/ml) was added for 9 days. For neurite outgrowth experiments, cells were treated for 1 day with 0.5 mM valproate or 50 ng/ml of BDNF. Where applicable, medium was changed every 2 days. After about 5–10 days, preferably on day 6 (i.e., after 6 days of drug exposure) the cells were fixed with a 4% solution of para-formaldehyde (PFA) in PBS, prepared as follows:
Immunofluorescent staining and visualization. Cells were plated at 20,000 cells/well in poly-L-ornithine/fibronectin (1 mg/ml) coated 24-well plates. After fixation, the PBS was aspirated from the fixed cells and the cells were treated with blocking solution (10% normal goat serum-NGS-Jackson Labs), 0.3% Triton-Sigma, in PBS) to saturate non-specific sites and permeabilize the cells. […]

[4] = system: human striatal stem cells (line 161); test: Neuronal differentiation of human striatal stem cells (β tubulin III neurons, total cells); assay type: cell-based; conditions: 9 days, 0.5 mM valproate, BDNF 25 ng/ml, untreated control 40%
Method: Expansion and differentiation of striatal human stem cells. Human stem cells were provided from ReNeuron Inc. (U.K.). Striatum was obtained after 6 to 12 weeks of gestation from routine legal abortion. Cell line was provided by ReNeuron at passage 16. The stem cells were expanded in untreated 25 cm^2 tissue culture flasks (Nunc, USA) in the presence of 20 ng/ml and 10 ng/ml of human recombinant EGF and bFGF respectively, in NSA basal serum-free medium (Euroclone, U.K). Fresh medium and growth factors were added every 3 days. In these conditions stem cells were growing as floating neurospheres. After 4 weeks, the neurospheres were harvested, treated with a mild papain treatment in HBSS and dissociated into a single cell suspension. Cells were counted and viability was estimated by trypan blue exclusion method. Cells were differentiated by growth factors removal. The cells were plated in NSA medium at 20,000 cells/well on LabTek permanox culture slides of 8 wells precoated with laminin (1 μg/ml). Cells were treated with valproate and BDNF for 9 days at 37° C. and a saturated humidified atmosphere of 5% CO2, 1% O2 and 94% N2. Fresh medium and re-treatment with factors was performed every 3 days.
as §2
Immunofluorescent staining and visualization. Cells were plated at 20,000 cells/well in poly-L-ornithine/fibronectin (1 mg/ml) coated 24-well plates. […]
For counting, three to five different fields of interest at magnification 10× or 20× were chosen randomly. For immunofluorescence, 3 different black and white pictures were taken by field of interest with a digital camera CoolSnap Fx (Princeton) corresponding to the exposure of Cy2, Cy3 and Hoechst fluorescence. […] The percentage of neurons, astrocytes and GABAergic cells was determined by comparing the number of cells immunopositive for β-tubulin III, GFAP and GABA to the number of bis-benzamide stained nuclei (i.e., total cell number). […]

rat cortical stem cells [5] = test: Neurite outgrowth of neurons derived from rat cortical stem cells (ArrayScan neurite outgrowth index); assay type: cell-based; conditions: 1 day; 0.5 mM valproate, 50 ng/ml BDNF; control 35.1+0.3
Method: as §1, with “At that time the cells were passaged as described and plated onto pre-coated poly-L-ornithine/fibronectin vessels at concentrations indicated below for each experiment. Cells were treated with bFGF for 2 additional days. Before each treatment the bFGF was removed from the cells by washing twice with DMEM/F 12 to induce cell differentiation. For neurite outgrowth experiments, cells were seeded at 5×10^3 cells/well in 24-well plates and treated immediately.” left out
For analysis of neurite outgrowth, digital images were taken with an ArrayScan HCS System (Cellomics, Pa.) of 100 cells/well treated with valproate (0.5 mM) and BDNF (50 ng/ml) for 1 day. […] Neurite outgrowth index is defined as the percentage of cells whose neurites total more than 20 μm in length, and is calculated using Cellomics' Neurite Outgrowth application.

Molecule	effect on proliferation and differentiation [1]	teratogenic activity [2]	also measured
CCCCC(CCCC)C(=O)O [2-butylhexnoic acid]	inhibit proliferation and enhance differentiation	in vivo teratogenic activity	–
CCC=C(CCC)C(=O)O [2-en-valproate]	have not been shown to affect differentiation	Non-teratogenic	–
CCCCC(CC)C(=O)O (stereo not drawn) [2-ethylhexanoic acid]	inhibit proliferation and enhance differentiation	in vivo teratogenic activity	–
CCCCC(CCC)C(=O)O (stereo not drawn) [2-propylhexanoic acid]	inhibit proliferation and enhance differentiation	in vivo teratogenic activity	–
CCCC(CC(C)C)C(=O)O (stereo not drawn) [4 methyl-valproate]	have not been shown to affect differentiation	Non-teratogenic	–
CC1=C(/C=C/C(C)=C\C=C\C(C)=C\C(=O)O)C(C)(C)CCC1 [9-cis RA, 9-cis retinoic acid]	–	–	neuronal differentiation compared to control, in words (rat cortical stem cells [3]; daily treatment 7 days, 0.5 mM valproate, 0.5× NCM, 1 nM 9-cis RA): increased the neuronal differentiation
C#CC[C@H](CCC)C(=O)O [(s)-4-yn-valproate]	inhibit proliferation and enhance differentiation	in vivo teratogenic activity	–
C#CCC(CCC)C(=O)O (stereo not drawn) [R-4-yn-valproate]	have not been shown to affect differentiation	Non-teratogenic	–
BDNF: brain-derived neurotrophic factor (R & D Systems), known promoter of neural stem cell differentiation (protein, UniProt P23560 19-247, looked up) Neurotrophic factor BDNF …: APMKEANIRGQGGLAYPGVRTHGTLESVNGPKAGSRGLTSLADTFEHVIEELLDEDQKVRPNEENNKDADLYTSRVMLSSQVPLEPPLLFLLEEYKNYLDAANMSMRVRRHSDPARRGELSVCDSISEWVTAADKKTAVDMSGGTVTVLEKVPVSKGQLKQYFYETKCNPMGYTKEGCRGIDKRHWNSQCRTTQSYVRALTMDSKKRIGWRFIRIDTSCVCTLTIKRGR	–	–	effect on neuronal differentiation (percentage of β-tubulin-III expressing cells) in words (rat cortical stem cells [3]): increased the percentage of β-tubulin-III expressing cells over control but was less effective than valproate; percentage of β-tubulin III expressing neurons (mean+SD) (rat cortical stem cells [3]; 0.5 mM valproate): 12.7+2%; neuronal differentiation [4]: 58%; neurite index (percentage of cells whose neurites total more than 20 μm in length) (rat cortical stem cells [5]): 38.3+1
NT-3: Neurotrophin-3 (R & D Systems) (protein, UniProt P20783 139-257, looked up) Neurotrophin-3: YAEHKSHRGEYSVCDSESLWVTDKSSAIDIRGHQVTVLGEIKTGNSPVKQYFYETRCKEARPVKNGCRGIDDKHWNSQCKTSQTYVRALTSENNKLVGWRWIRIDTSCVCALSRKIGRT	–	–	effect on neuronal differentiation (percentage of β-tubulin-III expressing cells) in words (rat cortical stem cells [3]): didn't have any effect; percentage of β-tubulin III expressing neurons (mean+SD) (rat cortical stem cells [3]; 0.5 mM valproate): 8+1%

— US7132286B2, “Method for neural stem cell differentiation using valproate” (Psychiatric Genomics, Inc., priority 2001, dated 2006)
